Data taken from patent US20220257518A1, “LONG-LASTING FORMULATION CONTAINING RIVASTIGMINE, AND METHOD FOR PREPARING SAME” (priority 2019, published 2022).

Experiment: Rivastigmine and pamoate contents in rivastigmine pamoate (HPLC)
Type: physicochemical
Conditions: HPLC 210 nm
Protocol: In order to measure the contents of rivastigmine and pamoate of rivastigmine pamoate prepared in Example 1, the sample 10 mg was completely dissolved with dimethyl sulfoxide, and then was diluted into a mobile phase. The diluted solution 20 uL was injected to HPLC and was measured at a detection wavelength 210 nm. The column used in the present measurement was Inertsil ODS-3, 5 um, 4.6×250 mm, and the mobile phase was used by mixing phosphate buffer solution (pH 6.0) and acetonitrile at a ratio of 65:35 (v/v).
For rivastigmine pamoate [Sample 1-4], the “Pamoate content of rivastigmine pamoate” value was 68.93 % by weight and the “Rivastigmine content of rivastigmine pamoate” value (“Rivastigmine content” below) was 32.19 % by weight. With rivastigmine pamoate [Sample 1-2] the “Pamoate content of rivastigmine pamoate” value was 40.47 % by weight and the “Rivastigmine content” value was 52.45 % by weight. With rivastigmine pamoate [Sample 1-3] the “Pamoate content of rivastigmine pamoate” value was 53.79 % by weight and the “Rivastigmine content” value was 41.10 % by weight. For rivastigmine pamoate [Sample 1-1], the “Pamoate content of rivastigmine pamoate” value was 40.49 % by weight and the “Rivastigmine content” value was 57.47 % by weight.

Experiment: not given
Conditions: cited from earlier work
In the case of `CCN(C)C(=O)Oc1cccc([C@H](C)N(C)C)c1` [rivastigmine freebase, rivastigmine], the Solubility in water is listed as at most 5000 µg/mL.
